From patent publication US7652020B2, “Compounds for the treatment of inflammatory disorders” (Schering Corporation, priority 2004, dated 2010)

Each compound was assayed against T1, purified catalytic domain of recombinant human TACE (rhTACEc) (Homo sapiens, UniProt P78536, N452Q/S266A) (assay: TACE kinetic assay: cleavage of internally quenched peptide substrate SPDL-3, fluorescence). Settings: Ki (nM), TACE, representative compounds, numeric values.
T1 construct: Residue 215 to 477 with two mutation (S266A and N452Q) and a 6×His tail; 6xHis (C); made in house; host or cells: baculovirus/Hi5 insect cells
T1 sequence (P78536 215-477 S266A/N452Q): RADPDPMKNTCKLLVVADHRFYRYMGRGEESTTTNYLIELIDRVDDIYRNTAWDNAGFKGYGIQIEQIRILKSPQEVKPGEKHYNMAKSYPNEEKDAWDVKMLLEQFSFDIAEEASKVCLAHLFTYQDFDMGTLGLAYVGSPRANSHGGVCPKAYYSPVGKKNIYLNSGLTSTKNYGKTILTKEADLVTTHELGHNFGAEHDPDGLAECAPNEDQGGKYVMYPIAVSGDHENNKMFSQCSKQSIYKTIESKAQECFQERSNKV
Type: biochemical

Structure (SMILES)	Ki
Cc1nc2ccccc2n1Cc1ccc(CNC(=O)[C@H](O)[C@@H](O)C(=O)N2Cc3ccccc3C2)s1	0.5 nM

Same assay, conditions: TACE inhibitory activity, class symbols; read-out: Ki

Ki	Structure (SMILES)
20 to 100 nM	CC1c2ncncc2CN1C(=O)[C@H](O)[C@@H](O)C(=O)N[C@H](C)c1ccc(-n2cccn2)cc1 (stereo partly drawn) [Compound 2049]
20 to 100 nM	C[C@@H](NC(=O)[C@H](O)[C@@H](O)C(=O)N1CCCCC1c1cccc(Cl)c1)c1ccc(-n2cccn2)cc1 (stereo partly drawn) [Compound 2415]
100 to 1000 nM	C[C@@H](NC(=O)[C@H](O)[C@@H](O)C(=O)N1CC=C[C@H]1c1cccc(Cl)c1)c1ccc(-n2cccn2)cc1 [Compound 2263]
100 to 1000 nM	C[C@@H](NC(=O)[C@H](O)[C@@H](O)C(=O)N1CC2CC1CN2c1ccc(Cl)cc1)c1ccc(-n2cccn2)cc1 (stereo partly drawn) [Compound 2099]
100 to 1000 nM	C[C@@H](NC(=O)[C@H](O)[C@@H](O)C(=O)N1CC(C)(C)CC1c1cccc(Cl)c1)c1ccc(-n2cccn2)cc1 (stereo partly drawn) [Compound 2237]
100 to 1000 nM	C[C@@H](NC(=O)[C@H](O)[C@@H](O)C(=O)N1C[C@H](O)[C@H](O)[C@H]1c1cccc(Cl)c1)c1ccc(-n2cccn2)cc1 [Compound 2267]
< 20 nM	CNc1nc([C@H]2c3ccccc3CCN2C(=O)[C@H](O)[C@@H](O)C(=O)N[C@H](C)c2ccc(-n3cccn3)cc2)cs1 [Compound 2586]
100 to 1000 nM	Cc1ncc2c(n1)CN(C(=O)[C@H](O)[C@@H](O)C(=O)N[C@H](C)c1ccc(-n3cccn3)cc1)C2 [Compound 2045]
> 1000 nM	CC(c1cccc(Cl)c1)N(C(=O)[C@H](O)[C@@H](O)C(=O)N[C@H](C)c1ccc(-n2cccn2)cc1)C1CC1 (stereo partly drawn) [Compound 2483]
20 to 100 nM	CCC(c1cccc(Cl)c1)N(C)C(=O)[C@H](O)[C@@H](O)C(=O)N[C@H](C)c1ccc(-n2cccn2)cc1 (stereo partly drawn) [Compound 2487]
> 1000 nM	C[C@@H](NC(=O)[C@](C)(O)[C@@H](O)C(=O)N1CCCC1(C)c1cccc(Cl)c1)c1ccc(-n2cccn2)cc1 (stereo partly drawn) [Compound 2236]
20 to 100 nM	C[C@@H](NC(=O)[C@H](O)[C@@H](O)C(=O)N1CCc2ncccc2C1)c1ccc(-n2cccn2)cc1 [Compound 2077]
< 20 nM	C[C@@H](NC(=O)[C@H](O)[C@@H](O)C(=O)N1CCCCC1c1ccccc1)c1ccc(-n2cccn2)cc1 (stereo partly drawn) [Compound 2410]
< 20 nM	C[C@@H](NC(=O)[C@H](O)[C@@H](O)C(=O)N1Cc2cccnc2C1)c1ccc(-n2cccn2)cc1 [Compound 2032]
20 to 100 nM	C[C@@H](NC(=O)[C@H](O)[C@@H](O)C(=O)N1CCNCC1c1ccccc1)c1ccc(-n2cccn2)cc1 (stereo partly drawn) [Compound 2414]
20 to 100 nM	C[C@@H](NC(=O)[C@H](O)[C@@H](O)C(=O)N1Cc2ccc[n+]([O-])c2C1)c1ccc(-n2cccn2)cc1 [Compound 2030]
< 20 nM	C[C@@H](NC(=O)[C@H](O)[C@@H](O)C(=O)N1CCc2ccc(F)cc2C1)c1ccc(-n2cccn2)cc1 [Compound 2439]
> 1000 nM	C[C@@H](NC(=O)[C@H](O)[C@@H](O)C(=O)N1CC(C)(C)C[C@@]1(C)c1cccc(Cl)c1)c1ccc(-n2cccn2)cc1 [Compound 2239]
100 to 1000 nM	C[C@@H](NC(=O)[C@H](O)[C@@H](O)C(=O)N1CCn2ccnc2C1)c1ccc(-n2cccn2)cc1 [Compound 2082]
< 20 nM	C[C@@H](NC(=O)[C@H](O)[C@@H](O)C(=O)N1Cc2cnc(N)nc2C1)c1ccc(-n2cccn2)cc1 [Compound 2043]

Continued, compound first:

Structure (SMILES)	Ki
COc1cc([C@@H](C)NC(=O)[C@](C)(O)[C@@H](O)C(=O)N2Cc3cccnc3C2)ccc1-n1cccn1 [Compound 2355]	< 20 nM
N#Cc1ccccc1N1CCC2(CC1)CC2NC(=O)[C@H](O)[C@@H](O)C(=O)N1CCC[C@@H]1c1ccccc1 (stereo partly drawn) [Compound 2153]	> 1000 nM
O=C(NCC1CCN(c2ccccc2OC(F)(F)F)CC1)[C@H](O)[C@@H](O)C(=O)N1Cc2cccnc2C1 [Compound 2035]	< 20 nM
C[C@@H](NC(=O)[C@](C)(O)[C@@H](O)C(=O)N1Cc2cncnc2C1(C)C)c1ccc(-n2cccn2)cc1 [Compound 2047]	100 to 1000 nM
O=C(NCc1ccc(-c2ccccc2OCC2CCCC2)cc1)[C@H](O)[C@@H](O)C(=O)N1CCCC1 [Compound 2340]	20 to 100 nM
O=C(NCc1ccc(-c2ccccc2OC(F)(F)F)c[n+]1[O-])[C@H](O)[C@@H](O)C(=O)N1Cc2ccccc2C1 [Compound 2348]	100 to 1000 nM
CO[C@@H](C(=O)NCc1ccc(-c2ccc(F)cc2OCCC2CCCCC2)cc1)[C@@H](O)C(=O)N1Cc2cccnc2C1 [Compound 2476]	20 to 100 nM
O=C(NCc1ccc(-c2ccccc2OCCN2CCOCC2)cc1)[C@H](O)[C@@H](O)C(=O)N1CCCC1 [Compound 2343]	> 1000 nM
O=C(NCC1CCN(c2ccc(F)cc2OCCC2CCCCC2)CC1)[C@H](O)[C@@H](O)C(=O)N1CCCC1 [Compound 2159]	20 to 100 nM
Cn1ccnc1[C@H](O)[C@@H](O)C(=O)NCc1ccc(-n2cccn2)cc1 [Compound 2397]	> 1000 nM
C[C@@H](NC(=O)[C@H](O)[C@@H](O)C(=O)N1CCC[C@@H]1c1ccn(-c2ccccc2)n1)c1ccc(-n2cccn2)cc1 [Compound 2597]	< 20 nM
O=C(NC[C@H]1CC[C@@H](n2c(C(F)(F)F)nc3ccccc32)CC1)[C@H](O)[C@@H](O)C(=O)N1CCC[C@@H]1c1ccccc1 [Compound 2352]	< 20 nM
C[C@@H](NC(=O)[C@H](O)[C@@H](O)C(=O)N1CCn2cnnc2C1)c1ccc(-n2cccn2)cc1 [Compound 2080]	100 to 1000 nM
C[C@@H](NC(=O)[C@H](O)[C@@H](O)C(=O)N1Cc2cccnc2C1)c1cccc(OCc2ccccc2)c1 [Compound 2308]	> 1000 nM
O=C(NCc1ccc(-c2ccccc2OCCC2CCCCC2)cc1)[C@H](O)[C@@H](O)C(=O)N1CCCC1 [Compound 2338]	< 20 nM
C[C@@H](NC(=O)[C@](C)(O)[C@@H](O)C(=O)N1Cc2ccncc2C1)c1ccc(-n2cccn2)cc1 [Compound 2039]	< 20 nM
O=C(NCc1ccc(-c2ccccc2OC(F)(F)F)cn1)[C@H](O)[C@@H](O)c1ccccn1 [Compound 2398]	> 1000 nM
C[C@H](c1ccc(-n2cccn2)cc1)N1CCO[C@H]([C@@H](O)C(=O)N2CCCC2c2ccccc2)C1=O (stereo partly drawn) [Compound 2478]	> 1000 nM
C[C@@H](NC(=O)[C@](C)(O)[C@@H](O)C(=O)N1Cc2cccnc2C1)c1ccc(-n2cccn2)c(OCc2ccccc2)c1 [Compound 2357]	< 20 nM
N#Cc1ccccc1N1CCC2(CC1)CC2NC(=O)[C@H](O)[C@@H](O)C(=O)N1Cc2ccccc2C1 (stereo partly drawn) [Compound 2154]	> 1000 nM
C[C@@H](NC(=O)[C@H](O)[C@@H](O)C(=O)N1CCC[C@@H]1c1csc2nccn12)c1ccc(-n2cccn2)cc1 [Compound 2506]	< 20 nM
O=C(NCC1CCN(c2cccc(F)c2OC(F)(F)F)CC1)[C@H](O)[C@@H](O)C(=O)N1CCCC1 [Compound 2140]	> 1000 nM
C[C@H](c1ccc(-n2cccn2)cc1)N1CCO[C@H]([C@@H](O)C(=O)N2Cc3ccccc3C2)C1=O [Compound 2474]	> 1000 nM
O=C(NCc1ccc(-c2ccc(F)cc2OCCC2CCCCC2)cc1)[C@H](O)[C@@H](O)C(=O)N1CCCC1 [Compound 2342]	100 to 1000 nM
CNc1nc2c(s1)CN(C(=O)[C@H](O)[C@@H](O)C(=O)N[C@H](C)c1ccc(-n3cccn3)cc1)CC2 [Compound 2084]	20 to 100 nM
C[C@@H](NC(=O)[C@](C)(O)[C@@H](O)C(=O)N1Cc2cccnc2C1)c1ccc(-n2cccn2)c(OCC2CC2)c1 [Compound 2358]	100 to 1000 nM
C[C@@H](NC(=O)[C@H](O)[C@@H](O)C(=O)N1Cc2cccnc2C1)c1ccc(-c2cccc(OCCC3CCCCC3)c2)cc1 [Compound 2353B]	20 to 100 nM
N#Cc1cc(F)ccc1N1CCC(CNC(=O)[C@H](O)[C@@H](O)C(=O)N2Cc3ccncc3C2)CC1 [Compound 2007]	< 20 nM
O=C([C@H](O)[C@@H](O)c1cncc(-c2ccccc2)n1)N1Cc2ccccc2C1 [Compound 2391]	> 1000 nM
CC(C)Nc1nc([C@H]2c3ccccc3CN2C(=O)[C@H](O)[C@@H](O)C(=O)N[C@H](C)c2ccc(-n3cccn3)cc2)cs1 [Compound 2592]	< 20 nM

Same assay, conditions: TACE, representative compounds, numeric values; read-out: Ki

Ki	Structure (SMILES)
0.75 nM	C[C@@H](NC(=O)[C@](C)(O)[C@@H](O)C(=O)N1CCCC1(C)c1cccc(Cl)c1)c1ccc(-n2cccn2)cc1 (stereo partly drawn) [drawing 1303]
0.6 nM	C[C@@H](NC(=O)[C@H](O)[C@@H](O)C(=O)N1CC=CC1c1cccc(Cl)c1)c1ccc(-n2cccn2)cc1 (stereo partly drawn)
0.86 nM	COc1cc2c(cc1OC)C(c1ccccc1)N(C(=O)[C@H](O)[C@@H](O)C(=O)N[C@H](C)c1ccc(-n3cccn3)cc1)CC2 (stereo partly drawn) [drawing 1306]
1.1 nM	C[C@@H](NC(=O)[C@H](O)[C@@H](O)C(=O)N1CCc2ccccc2[C@@H]1c1csc(N)n1)c1ccc(-n2cccn2)cc1 [drawing 1309]
3 nM	C[C@@H](NC(=O)[C@H](O)[C@@H](O)C(=O)N1CCc2ccc(F)cc2C1)c1ccc(-n2cccn2)cc1 [drawing 1323]

Further lines, the compound ahead of its results:

Structure (SMILES)	Ki
CNc1nc([C@H]2CCCN2C(=O)[C@H](O)[C@@H](O)C(=O)N[C@H](C)c2ccc(-n3cccn3)cc2)c(C#N)s1 [drawing 1316]	2 nM
C[C@@H](NC(=O)[C@H](O)[C@@H](O)C(=O)N1Cc2ccccc2C1)c1ccc(-c2ccsc2)cc1	3.8 nM
Cc1cccc(C)c1Cc1csc(CNC(=O)[C@H](O)[C@@H](O)C(=O)N2CCCC2c2cccc(CN3CCCC3)c2)n1 (stereo partly drawn)	1.4 nM
CCNc1nc([C@@H]2c3ccccc3CN2C(=O)[C@H](O)[C@@H](O)C(=O)N[C@H](C)c2ccc(-n3cccn3)cc2)cs1 [drawing 1307]	0.89 nM
CNc1nc([C@H]2CC(F)(F)CN2C(=O)[C@H](O)[C@@H](O)C(=O)N[C@H](C)c2ccc(-n3cccn3)cc2)cs1 [drawing 1327]	3.9 nM
CCNc1nc(C2c3ccccc3CN2C(=O)[C@H](O)[C@@H](O)C(=O)N[C@H](C)c2ccc(-n3cccn3)cc2)cs1 (stereo partly drawn)	0.16 nM
C[C@@H](NC(=O)[C@H](O)[C@@H](O)C(=O)N1CCC[C@@H]1c1ccn(-c2ccc(F)cc2)n1)c1ccc(-n2cccn2)cc1 [drawing 1317]	2 nM
